Reference: patent US6458822B2, “2-oxo-imidazolidine-4-carboxylic acid hydroxamide compounds that inhibit matrix metalloproteinases” (Pfizer Inc., priority 2000, dated 2002)

melting point: 130 to 133 °C
SMILES: COc1ccc(CN2C[C@H](C(=O)NO)NC2=O)cc1 [Example 4, (4R)-1-(4-Methoxybenzyl)-2-oxo-imidazolidine-4-carboxylic Acid Hydroxyamide]
